Results as given in US12344572B2, “Cationic lipids and transfection methods” (Factor Bioscience Inc., priority 2019, dated 2025).

How the values were obtained:
[1] = Particle size of DLinDHS/RNA complexes by dynamic light scattering; assay type: physicochemical; settings: DLinDHS/RNA complexes formed in aqueous mRNA solution with varied sodium chloride concentration
[2] = test system: human peripheral blood mononuclear cells (hPBMCs); experiment: Transfection of human peripheral blood mononuclear cells with GFP-encoding RNA complexed with lipid; assay type: cell-based; settings: images 16 hours following transfection; both lipid-to-RNA mass ratios tested
[3] = test system: primary human epidermal keratinocytes; experiment: Gene editing of keratinocytes with RNA encoding gene-editing proteins, T7E1 endonuclease digestion; assay type: cell-based; settings: RNA encoding gene-editing proteins complexed with lipid
[4] = test system: confluent layer of primary human epidermal keratinocytes; experiment: Transfection of a confluent layer of primary human epidermal keratinocytes with GFP-encoding RNA; assay type: cell-based; settings: images 24 hours following transfection; both lipid-to-RNA mass ratios tested
[5] = test system: RNase A; experiment: Protection of mRNA from RNase A degradation, GFP readout in keratinocytes; assay type: cell-based; settings: DLinDHS/mRNA complexes treated with RNase A after complexation, 2.5 μg/μg, 20,000 keratinocytes in serum-free medium
[6] = test system: primary human epidermal keratinocytes; experiment: Transfection of primary human epidermal keratinocytes with GFP-encoding RNA complexed with lipid, in 100% FBS; assay type: cell-based
[7] = Zeta potential of DLinDHS/RNA complexes versus buffer pH; assay type: physicochemical
[8] = test system: primary human dermal fibroblasts; experiment: Time-lapse fluorescence imaging of labeled RNA / labeled lipid uptake in dermal fibroblasts; assay type: cell-based
[9] = test system: primary human adult dermal fibroblasts; experiment: Transfection of primary human adult dermal fibroblasts with GFP-encoding RNA; assay type: cell-based; settings: images 16 hours following transfection; both lipid-to-RNA mass ratios tested
[10] = test system: human subject; experiment: In vivo mRNA delivery to a human subject by intradermal injection, confocal fluorescence microscopy of biopsy; settings: human male, ventral forearm, 400 ng RNA in 20 μL, 2.5 μg/μg, biopsy after 48 hours
[11] = test system: human epidermal keratinocytes; experiment: GFP mRNA delivery to keratinocytes in serum-free medium or 50% FBS; assay type: cell-based; settings: 20,000 keratinocytes, 0% FBS or 50% FBS, images 16 hours following transfection; DLinDHS at 2.5 μg/μg lipid-to-RNA; LNPs 300 ng final mRNA
[12] = test system: Rat; experiment: mRNA delivery in rat by intradermal injection, anti-GFP histology; assay type: in vivo; settings: GFP mRNA complexed at 2.5 μg/μg, necropsy 48 hours

particle size of lipoplex (Z-average, DLS) [1]: ionic-strength dependent
protection of complexed RNA from RNase A degradation (GFP expression) [5]: protected from degradation
dependence of zeta potential on pH ([7]; DLinDHS/RNA lipoplexes diluted into 20 mM citrate pH 3.0-6.0 or 20 mM phosphate pH 7.4): pH-dependent
zeta potential ([7]; DLinDHS/RNA lipoplexes, 2.5 μg/μg, 20 mM phosphate, pH 7.4): −22.1 mV
Structure (SMILES): CCCCC/C=C\C/C=C\CCCCCCCCN(CCCCN(CCCCCCCC/C=C\C/C=C\CCCCC)CC(O)CN)CC(O)CN (centres unmarked) [DHDLinS, N^1,N^4-dilinoleyl-N^1,N^4-di-(2-hydroxy-3-aminopropyl)-diaminobutane]
transfection of hPBMCs (GFP fluorescence) [2]: effectively transfected hPBMCs at both lipid-to-RNA mass ratios tested
gene-editing efficiency [3]: gene edited at high efficiency
transfection of confluent keratinocytes (GFP fluorescence) [4]: effectively transfected
transfection of keratinocytes (GFP fluorescence) ([6]; 400 ng per well GFP RNA, complexation in DMEM, transfection in 100% FBS, images 8 hours after transfection, lipid without acetone purification): transfected with high efficiency
lipid-to-RNA mass ratios at which minimal increase in fluorescence signal was observed ([6]; DHDLinS purified by extraction with acetone, keratinocytes, images 16 hours following transfection): greater than 2 μg/μg
time after transfection at which a fluorescent signal was detected ([6]; experiment of FIG. 1, keratinocytes, 100% FBS): one
time after transfection at which protein expression begins ([8]; 100 ng GFP mRNA, 2.5 μg/μg, 20,000 fibroblasts in 10% FBS): ≤ 2.5 h
time to detection of mRNA in cytoplasm after contact with lipoplexes ([8]; 100 ng GFP mRNA, 20% Cy5-labeled, 2.5 μg/μg, 20,000 fibroblasts in 10% FBS): ≤ 50 min
contact of labeled lipid with cells ([8]; BODIPY-labeled DLinDHS (10:1), 200 ng GFP mRNA, fibroblasts): contacts cells within minutes after transfection
transfection of adult dermal fibroblasts (GFP fluorescence) [9]: effectively transfected
reporter protein (RFP) expression in skin [10]: RFP-positive cells that have a morphology consistent with that of fibroblasts
mRNA delivery in serum (GFP fluorescence) [11]: efficiently delivers mRNA in 50% serum
reporter protein (GFP) expression in tissue [12]: localized expression in the dermal layer
